Measured values reported in patent US20070026431A1, “Modulation of MAPK-mediated phosphorylation and/or FBXW8-mediated ubiquitinylation of cyclin D1 in modulation of cellular proliferation” (priority 2005, published 2007).
Entries after “also recorded” stand apart in the source; their conditions may differ.

Legend:
[1] = test system: cyclin D1 Thr286 phosphorylation; assay: Thr286 phosphorylation of transfected ΔD cyclin D1 after BIO, NIH 3T3 cells; type: cell-based, mouse; conditions: 5 μM BIO 24 hours after transfection
Excerpt: FIG. 9 illustrates that MAPK directly binds to cyclin D1 through the MAPK docking site (D-domain) within cyclin D1 and phosphorylates it specifically at Thr286. Panel A: p42 ERK2-associated GST-cyclin D1 (CD1) in vitro kinase assays (upper panels). Purified ERK2 phosphorylates cyclin D1 in vitro. Immuno-blotting (IB) analyses stained with a GST antibody (lower panels) were provided as a reference to show loading conditions of various forms of GST-CD1 fusion proteins. (A) GST alone (lane 1), GST-human (h) CD1 amino acids (A.A.) from 165 to 295 (165-295, lane 2), GST-human (h) or mouse (m) CD1 A.A. from 255 to 295 (255-295, lane 3 and 4) were used. Panel B: Western blot analysis following transfection of various forms of HA-tagged cyclin D1 expression vectors in both NIH 3T3 mouse fibroblast (left) and HCT 116 colon cancer (right) cells. In lane 5 and 10, Cells were treated with 5 μM of a highly specific GSK3β inhibitor BIO for further 24 hours following transfcetion of the ΔD CD1 mutant.
FIG. 11 illustrates that ERK/MAPK is identified as the major kinase that is responsible for the stability of cyclin D1 protein. […] Cyclin D1 was immunoprecipitated and then analyzed with SDS-PAGE. […] Levels of metabolically labeled-cyclin D1 were estimated by quantitative scanning using the Quantity One (Bio-Rad) software and blotted on the graph to determine the half-life of cyclin D1. […]

GSK3α/β = assay: Phosphorylation-specific blot for GSK3α/β, SW480 cells; type: cell-based, human; conditions: 24 hours of treatment
cyclin D1 protein = assay: Pulse-chase analysis of cyclin D1 protein in HCT 116 cells; type: cell-based, human; conditions: HCT 116; 5 μM BIO 24 hours
Experimental: FIG. 11 illustrates that ERK/MAPK is identified as the major kinase that is responsible for the stability of cyclin D1 protein. Panels A-F: Pulse-chase analysis of cyclin D1 protein in HCT 116 cells after exposure to the MEK inhibitor U0126 (A-C) or the GSK3 inhibitor BIO (D-F). Exponentially growing HCT 116 cells were treated with either DMSO or 10 μM of U0126 (A-C) for 30 minutes, or DMSO or 5 μM of BIO (D-F) for 24 hours. Panels A and D: Cells were pulse-labeled with ^35S-methionine for 1 hour. Subsequently these cells were chased with cold methionine for the indicated times, and then lysed respectively. Cyclin D1 was immunoprecipitated and then analyzed with SDS-PAGE. Autoradiography was performed. Levels of metabolically labeled-cyclin D1 were estimated by quantitative scanning using the Quantity One (Bio-Rad) software and blotted on the graph to determine the half-life of cyclin D1. […]
FIG. 18 illustrates that knockdown of FBXW8, or its partner CUL1 or CUL7 expression through siRNA stabilizes cyclin D1 expression in HCT 116 colon cancer cells. […] Cyclin D1 was immunoprecipitated and then analyzed with SDS-PAGE. Levels of metabolically labeled-cyclin D1 were estimated by quantitative scanning using the Quantity One software (Bio-Rad) and blotted on the graph to determine the half-life of cyclin D1 (D).
Pulse-Chase Analysis. […] Cyclin D1 was immunoprecipitated and then analyzed with SDS-PAGE. […]

cyclin D1 = assay: Immunofluorescence, subcellular localization of cyclin D1 in HCT 116 cells; type: cell-based, human; conditions: 5 μM BIO 24 hours, BrdU pulse
Experimental: Panels A-C: Immunofluorescence analysis. Nuclei were visualized with Hoechst dye. […] Panel A: Subcellular localization of cyclin D1. […] Panel B: Subcellular localization of the E3 ligase. […] Panel D: Immunoprecipitated-immunoblotting analysis. Panel E: Cell cycle distributions.
Immunofluorescence Analysis. Cultured cells on multiwell chamber slides (Nalge Nunc) were fixed with 4% paraformaldehyde in PBS and permeabilized in PBS containing 0.1% Triton X-100. Primary antibodies were diluted 1:100 in PBS containing 5% normal goat serum and applied for 2 hours. Proteins were detected either with mouse monoclonal antibodies or rabbit polyclonal antibodies followed by fluorescent substrate conjugated anti-mouse or anti-rabbit secondary antibody (Molecular Probes). For example, Cyclin D1 was detected either with mouse monoclonal cyclin D1 antibody (A-12, Santa Cruz) followed by fluorescent substrate conjugated anti-mouse or anti-rabbit secondary antibody (Molecular Probes). Nuclei were visualized using Hoechst 33258 (Molecular Probes). Fluorescence image was detected using LEICADMRD microscope (Leica).
Exponentially growing HCT 116 colon cancer cells were treated with the GSK3 inhibitor BIO for 24 hours. […] The subcellular distribution of cyclin D1 was visualized under the microscope (FIG. 12, Panel A). […]

## O=C1Nc2cc(Br)ccc2/C1=C1/Nc2ccccc2/C1=N\O [BIO]
[1]
  phosphorylation status of cyclin D1 at Thr286 (ΔD mutant): slight change; also recorded: reduction
GSK3α/β
  phosphorylated forms of GSK3α/β: disappeared
Cyclin D1 protein
  half-life of cyclin D1 protein: no significant difference
Cyclin D1
  subcellular localization of cyclin D1: no significant difference
